Reference: patent US20090035394A1, “USE OF DNA-PK INHIBITION TO SENSITISE ATM DEFICIENT CANCERS TO DNA-DAMAGING CANCER THERAPIES” (priority 2005, published 2009)

Experiments:
[1] = system: pEBS7-YZ5 (ATM-competent, ATM+/+) cells; assay: Chemopotentiation, sulforhodamine B growth assay in 96 well plates; assay type: cell-based, human; settings: for % survival / Avg (absorbance at 564 nm): no inhibitor, pEBS7-YZ; for PF50 (potentiation factor at 50% cell kill): damaging agent without / with KU-0060648 (0.5 μM), pEBS7-YZ (ATM-competent)
Description: (§1) The A-T fibroblast AT221JE-T cells (pEBS7, herein referred to as ATM-null cells) and the trans-complemented ATM+/+ (pEBS7-YZ5, herein referred to as ATM-competent cells) were grown in DMEM+20% FBS PSG and 100 ug/ml hygromycin. These cells are immortalised fibroblasts from an A-T patient which were transfected with pEBS7-YZ5 vector coding for full length ATM and the hygromycin resistance marker or pEBS7 vector, coding for the hygromycin resistance marker only. (Ziv Y et al (1997) Oncogene 15, 159-67)
(§2) Following a 4-hour incubation to allow cell adherence, 5 μl DNA-PKcS inhibitor KU-0060648 (final concentration 0.5 μM) or DMSO/PBS equivalent was added. After a further 1 hour incubation, 5 μl of chemotherapeutic drug was added per well (see table 1). Drugs were removed after 16 hours and 150 μl fresh medium added per well. After 24h, one plate for each cell line was fixed and stained to account for background differences between the lines. Five days after seeding, the medium was aspirated from the wells of the remaining assay plates and 100 μl ice cold 10% TCA added for 30 minutes at 4° C. The wells were then washed four times with tap water and 50 μl 0.4% sulforhodamine B in 1% acetic acid added per well. After 15 minutes incubation at room temperature, excess stain was washed from the wells with 1% acetic acid. 100 μl […] pH6.8 was then added per well, the plates shaken to resuspend the stain and the absorbance at 564 nm determined.

[2] = system: pEBS7 (ATM-null) cells; assay: as above; assay type: cell-based, human; settings: for % survival / Avg (absorbance at 564 nm): no inhibitor, pEBS7; for PF50 (potentiation factor at 50% cell kill): damaging agent without / with KU-0060648 (0.5 μM), pEBS7 (ATM-null)
Description: as §1, §2

[3] = Con: doxorubicin 0.01 (unit not given)
[4] = Con: doxorubicin 0.025 (unit not given)
[5] = Con: doxorubicin 0.05 (unit not given)
[6] = Con: doxorubicin 0.075 (unit not given)
[7] = Con: doxorubicin 0.1 (unit not given)
[8] = Con: doxorubicin 0.25 (unit not given)
[9] = Con: doxorubicin 0.5 (unit not given)
[10] = Con: doxorubicin 0.75 (unit not given)
[11] = Con: doxorubicin 1 (unit not given)
[12] = Con: doxorubicin 2.5 (unit not given)
[13] = Con: doxorubicin 5 (unit not given)
[14] = Con: etoposide 0.01 (μg/ml per Table 1)
[15] = Con: etoposide 0.025 (μg/ml per Table 1)
[16] = Con: etoposide 0.05 (μg/ml per Table 1)
[17] = Con: etoposide 0.075 (μg/ml per Table 1)
[18] = Con: etoposide 0.1 (μg/ml per Table 1)
[19] = Con: etoposide 0.25 (μg/ml per Table 1)
[20] = Con: etoposide 0.5 (μg/ml per Table 1)
[21] = Con: etoposide 0.75 (μg/ml per Table 1)
[22] = Con: etoposide 1 (μg/ml per Table 1)
[23] = Con: etoposide 2.5 (μg/ml per Table 1)
[24] = Con: etoposide 5 (μg/ml per Table 1)

COc1cccc2c1C(=O)c1c(O)c3c(c(O)c1C2=O)C[C@@](O)(C(=O)CO)C[C@@H]3O[C@H]1C[C@H](N)[C@H](O)[C@H](C)O1 [Doxorubicin, doxorubicin, reference compound]
% survival [1, 3]: 88.3% | Avg (absorbance at 564 nm) [1, 3]: 1.43 | % survival [1, 4]: 89.4% | Avg (absorbance at 564 nm) [1, 4]: 1.45 | % survival [1, 5]: 87.3% | Avg (absorbance at 564 nm) [1, 5]: 1.42 | % survival [1, 6]: 94.1% | Avg (absorbance at 564 nm) [1, 6]: 1.53 | % survival [1, 7]: 103.9% | Avg (absorbance at 564 nm) [1, 7]: 1.69 | % survival [1, 8]: 95.3% | Avg (absorbance at 564 nm) [1, 8]: 1.55 | % survival [1, 9]: 53.4% | Avg (absorbance at 564 nm) [1, 9]: 0.87 | % survival [1, 10]: 33.2% | Avg (absorbance at 564 nm) [1, 10]: 0.54 | % survival [1, 11]: 8.8% | Avg (absorbance at 564 nm) [1, 11]: 0.14 | % survival [1, 12]: −1.7% | Avg (absorbance at 564 nm) [1, 12]: −0.03 | % survival [1, 13]: −2.6% | Avg (absorbance at 564 nm) [1, 13]: −0.04 | PF50 (potentiation factor at 50% cell kill) [1]: 1.5 | % survival [2, 3]: 111.8% | Avg (absorbance at 564 nm) [2, 3]: 1.46 | % survival [2, 4]: 117.0% | Avg (absorbance at 564 nm) [2, 4]: 1.53 | % survival [2, 5]: 106.4% | Avg (absorbance at 564 nm) [2, 5]: 1.39 | % survival [2, 6]: 113.1% | Avg (absorbance at 564 nm) [2, 6]: 1.47 | % survival [2, 7]: 111.2% | Avg (absorbance at 564 nm) [2, 7]: 1.45 | % survival [2, 8]: 63.8% | Avg (absorbance at 564 nm) [2, 8]: 0.83 | % survival [2, 9]: 37.3% | Avg (absorbance at 564 nm) [2, 9]: 0.49 | % survival [2, 10]: 12.6% | Avg (absorbance at 564 nm) [2, 10]: 0.16 | % survival [2, 11]: −0.9% | Avg (absorbance at 564 nm) [2, 11]: −0.01 | % survival [2, 12]: −2.6% | Avg (absorbance at 564 nm) [2, 12]: −0.03 | % survival [2, 13]: −3.6% | Avg (absorbance at 564 nm) [2, 13]: −0.05 | PF50 (potentiation factor at 50% cell kill) [2]: 2.3

COc1cc([C@@H]2c3cc4c(cc3[C@@H](O[C@@H]3O[C@@H]5CO[C@@H](C)O[C@H]5[C@H](O)[C@H]3O)[C@H]3COC(=O)[C@H]23)OCO4)cc(OC)c1O [Etoposide, etoposide, reference compound]
% survival [1, 14]: 103.9% | Avg (absorbance at 564 nm) [1, 14]: 1.74 | % survival [1, 15]: 93.1% | Avg (absorbance at 564 nm) [1, 15]: 1.56 | % survival [1, 16]: 94.1% | Avg (absorbance at 564 nm) [1, 16]: 1.58 | % survival [1, 17]: 96.6% | Avg (absorbance at 564 nm) [1, 17]: 1.62 | % survival [1, 18]: 104.2% | Avg (absorbance at 564 nm) [1, 18]: 1.75 | % survival [1, 19]: 95.8% | Avg (absorbance at 564 nm) [1, 19]: 1.60 | % survival [1, 20]: 95.0% | Avg (absorbance at 564 nm) [1, 20]: 1.59 | % survival [1, 21]: 75.1% | Avg (absorbance at 564 nm) [1, 21]: 1.26 | % survival [1, 22]: 32.4% | Avg (absorbance at 564 nm) [1, 22]: 0.54 | % survival [1, 23]: 39.0% | Avg (absorbance at 564 nm) [1, 23]: 0.65 | % survival [1, 24]: 21.7% | Avg (absorbance at 564 nm) [1, 24]: 0.36 | PF50 (potentiation factor at 50% cell kill) [1]: 1.7 | % survival [2, 14]: 84.6% | Avg (absorbance at 564 nm) [2, 14]: 1.38 | % survival [2, 15]: 84.9% | Avg (absorbance at 564 nm) [2, 15]: 1.38 | % survival [2, 16]: 89.0% | Avg (absorbance at 564 nm) [2, 16]: 1.45 | % survival [2, 17]: 90.8% | Avg (absorbance at 564 nm) [2, 17]: 1.48 | % survival [2, 18]: 80.6% | Avg (absorbance at 564 nm) [2, 18]: 1.31 | % survival [2, 19]: 66.8% | Avg (absorbance at 564 nm) [2, 19]: 1.09 | % survival [2, 20]: 53.0% | Avg (absorbance at 564 nm) [2, 20]: 0.86 | % survival [2, 21]: 15.8% | Avg (absorbance at 564 nm) [2, 21]: 0.26 | % survival [2, 22]: 2.5% | Avg (absorbance at 564 nm) [2, 22]: 0.04 | % survival [2, 23]: 1.2% | Avg (absorbance at 564 nm) [2, 23]: 0.02 | % survival [2, 24]: −1.6% | Avg (absorbance at 564 nm) [2, 24]: −0.03 | PF50 (potentiation factor at 50% cell kill) [2]: 6.5
